Experimental data published in patent US10722501B2 (BAYER AKTIENGESELLSCHAFT, priority 2016, dated 2020).

Target: T1, recombinant full-length human prolyl endopeptidase (PREP) (Homo sapiens, UniProt P48147)
T1 construct: To recombinant full-length human prolyl endopeptidase (PREP, R&D-Systems, 4308-SE); purchased R&D-Systems 4308-SE
T1 sequence (P48147 1-710): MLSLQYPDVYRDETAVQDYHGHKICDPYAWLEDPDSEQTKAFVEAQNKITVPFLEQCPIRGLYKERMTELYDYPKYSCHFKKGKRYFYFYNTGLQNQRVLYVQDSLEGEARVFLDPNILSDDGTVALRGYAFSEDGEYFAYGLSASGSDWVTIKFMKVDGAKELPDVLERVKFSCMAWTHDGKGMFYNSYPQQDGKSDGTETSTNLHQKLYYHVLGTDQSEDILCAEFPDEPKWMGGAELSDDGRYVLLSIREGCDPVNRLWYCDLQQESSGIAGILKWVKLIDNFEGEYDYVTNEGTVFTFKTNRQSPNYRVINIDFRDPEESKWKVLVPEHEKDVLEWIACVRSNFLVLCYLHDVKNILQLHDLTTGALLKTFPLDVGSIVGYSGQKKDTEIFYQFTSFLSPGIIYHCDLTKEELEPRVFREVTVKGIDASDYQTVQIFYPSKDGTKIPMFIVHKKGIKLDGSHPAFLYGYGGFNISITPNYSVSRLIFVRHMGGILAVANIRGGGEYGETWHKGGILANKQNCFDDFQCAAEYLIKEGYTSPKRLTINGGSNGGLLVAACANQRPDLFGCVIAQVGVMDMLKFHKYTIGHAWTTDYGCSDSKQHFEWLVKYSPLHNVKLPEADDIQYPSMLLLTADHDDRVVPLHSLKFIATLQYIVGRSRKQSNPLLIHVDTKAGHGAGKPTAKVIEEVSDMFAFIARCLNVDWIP
Test: Biochemical human prolyl endopeptidase (PREP) assay with fluorescently labelled substrate
Settings: substrate Z-Gly-Pro-AMC 50 μM, 32° C., 60 min; some as mean values from multiple independent determinations
Summary of the method: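 Initial rates of fluorescence increase from 50 μM Z-Gly-Pro-AMC cleavage (ex 360/em 465 nm, 60 min, 32° C) give percent PREP activity versus no-compound control, and IC50 is interpolated. Enzyme used at 0.4 nM (final, example) in Tris pH 7.5 with EDTA, GSH, BSA and Brij-35; compounds span 1 nM to 30 μM.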

IC50 | SMILES
0.94 nM | O=C([C@@H]1CCCc2nn(Cc3cccc(Cl)n3)c(=O)n21)N1CC[C@H](F)C1 [Example 386, (5S)-2-[(6-Chloropyridin-2-yl)methyl]-5-{[(3S)-3-fluoropyrrolidin-1-yl]carbonyl}-5,6,7,8-tetrahydro[1,2,4]triazolo[4,3-a]pyridin-3(2H)-one]
3.4 nM | O=C([C@@H]1CCCc2nn(Cc3nccc(C(F)(F)F)c3Cl)c(=O)n21)N1CCC(F)(F)C1 [Example 387, (5S)-2-{[3-Chloro-4-(trifluoromethyl)pyridin-2-yl]methyl}-5-[(3,3-difluoropyrrolidin-1-yl)carbonyl]-5,6,7,8-tetrahydro[1,2,4]triazolo[4,3-a]pyridin-3(2H)-one]
0.575 nM | O=C([C@@H]1CCCc2nn(Cc3nccc(C(F)(F)F)c3Cl)c(=O)n21)N1C[C@@H](F)[C@@H](F)C1 [Example 388, (5S)-2-{[3-Chloro-4-(trifluoromethyl)pyridin-2-yl]methyl}-5-{[(3R,4S)-3,4-difluoropyrrolidin-1-yl]carbonyl}-5,6,7,8-tetrahydro[1,2,4]triazolo[4,3-a]pyridin-3(2H)-one]
1.45 nM | O=C([C@@H]1CCCc2nn(Cc3nccc(C(F)(F)F)c3Cl)c(=O)n21)N1CC(F)C1 [Example 389, (5S)-2-{[3-Chloro-4-(trifluoromethyl)pyridin-2-yl]methyl}-5-[(3-fluoroazetidin-1-yl)carbonyl]-5,6,7,8-tetrahydro[1,2,4]triazolo[4,3-a]pyridin-3(2H)-one]
13.5 nM | O=C([C@@H]1CCCc2nn(Cc3nccc(C(F)(F)F)c3Cl)c(=O)n21)N1CC(O)C1 [Example 390, (5S)-2-{[3-Chloro-4-(trifluoromethyl)pyridin-2-yl]methyl}-5-[(3-hydroxyazetidin-1-yl)carbonyl]-5,6,7,8-tetrahydro[1,2,4]triazolo[4,3-a]pyridin-3(2H)-one]
8.65 nM | O=C([C@@H]1CCCc2nn(Cc3nccc(C(F)(F)F)c3Cl)c(=O)n21)N1CC[C@H](O)C1 [Example 391, (5S)-2-{[3-Chloro-4-(trifluoromethyl)pyridin-2-yl]methyl}-5-{[(3S)-3-hydroxypyrrolidin-1-yl]carbonyl}-5,6,7,8-tetrahydro[1,2,4]triazolo[4,3-a]pyridin-3(2H)-one]
0.46 nM | O=C([C@@H]1CCCc2nn(Cc3nccc(C(F)(F)F)c3Cl)c(=O)n21)N1CC[C@H](F)C1 [Example 392, (5S)-2-{[3-Chloro-4-(trifluoromethyl)pyridin-2-yl]methyl}-5-{[(3S)-3-fluoropyrrolidin-1-yl]carbonyl}-5,6,7,8-tetrahydro[1,2,4]triazolo[4,3-a]pyridin-3(2H)-one]
1.4 nM | O=C([C@@H]1CCCc2nn(Cc3ncccc3Cl)c(=O)n21)N1CC[C@H](F)C1 [Example 393, (5S)-2-[(3-Chloropyridin-2-yl)methyl]-5-{[(3S)-3-fluoropyrrolidin-1-yl]carbonyl}-5,6,7,8-tetrahydro[1,2,4]triazolo[4,3-a]pyridin-3(2H)-one]
28 nM | O=C([C@@H]1CCCc2nn(Cc3ncccc3Cl)c(=O)n21)N1CC(F)(F)C1 [Example 394, (5S)-2-[(3-Chloropyridin-2-yl)methyl]-5-[(3,3-difluoroazetidin-1-yl)carbonyl]-5,6,7,8-tetrahydro[1,2,4]triazolo[4,3-a]pyridin-3(2H)-one]
1.6 nM | O=C([C@@H]1CCCc2nn(Cc3ncccc3Cl)c(=O)n21)N1C[C@@H](F)[C@@H](F)C1 [Example 395, (5S)-2-[(3-Chloropyridin-2-yl)methyl]-5-{[(3R,4S)-3,4-difluoropyrrolidin-1-yl]carbonyl}-5,6,7,8-tetrahydro[1,2,4]triazolo[4,3-a]pyridin-3(2H)-one]
6 nM | O=C([C@@H]1CCCc2nn(Cc3ncccc3Cl)c(=O)n21)N1CC(F)C1 [Example 396, (5S)-2-[(3-Chloropyridin-2-yl)methyl]-5-[(3-fluoroazetidin-1-yl)carbonyl]-5,6,7,8-tetrahydro[1,2,4]triazolo[4,3-a]pyridin-3(2H)-one]
6.9 nM | O=C([C@@H]1CCCc2nn(Cc3ncc(Cl)cc3Cl)c(=O)n21)N1CC(F)(F)C1 [Example 397, (5S)-2-[(3,5-Dichloropyridin-2-yl)methyl]-5-[(3,3-difluoroazetidin-1-yl)carbonyl]-5,6,7,8-tetrahydro[1,2,4]triazolo[4,3-a]pyridin-3(2H)-one]
1.19 nM | O=C([C@@H]1CCCc2nn(Cc3ncc(Cl)cc3Cl)c(=O)n21)N1CC(F)C1 [Example 398, (5S)-2-[(3,5-Dichloropyridin-2-yl)methyl]-5-[(3-fluoroazetidin-1-yl)carbonyl]-5,6,7,8-tetrahydro[1,2,4]triazolo[4,3-a]pyridin-3(2H)-one]
1.55 nM | O=C([C@@H]1CCCc2nn(Cc3ncc(Cl)cc3Cl)c(=O)n21)N1CCC(F)(F)C1 [Example 399, (5S)-2-[(3,5-Dichloropyridin-2-yl)methyl]-5-[(3,3-difluoropyrrolidin-1-yl)carbonyl]-5,6,7,8-tetrahydro[1,2,4]triazolo[4,3-a]pyridin-3(2H)-one]
0.455 nM | O=C([C@@H]1CCCc2nn(Cc3ncc(Cl)cc3Cl)c(=O)n21)N1C[C@@H](F)[C@@H](F)C1 [Example 400, (5S)-2-[(3,5-Dichloropyridin-2-yl)methyl]-5-{[(3R,4S)-3,4-difluoropyrrolidin-1-yl]carbonyl}-5,6,7,8-tetrahydro[1,2,4]triazolo[4,3-a]pyridin-3(2H)-one]
3.4 nM | O=C([C@@H]1CCCc2nn(Cc3ncc(C(F)(F)F)cc3Cl)c(=O)n21)N1CC[C@@H](F)C1 [Example 401, (5S)-2-{[3-Chloro-5-(trifluoromethyl)pyridin-2-yl]methyl}-5-{[(3R)-3-fluoropyrrolidin-1-yl]carbonyl}-5,6,7,8-tetrahydro[1,2,4]triazolo[4,3-a]pyridin-3(2H)-one]
2.7 nM | O=C([C@@H]1CCCc2nn(Cc3ncc(C(F)(F)F)cc3Cl)c(=O)n21)N1CC(F)C1 [Example 402, (5S)-2-{[3-Chloro-5-(trifluoromethyl)pyridin-2-yl]methyl}-5-[(3-fluoroazetidin-1-yl)carbonyl]-5,6,7,8-tetrahydro[1,2,4]triazolo[4,3-a]pyridin-3(2H)-one]
2.33 nM | O=C([C@@H]1CCCc2nn(Cc3ncc(C(F)(F)F)cc3Cl)c(=O)n21)N1CCC(F)(F)C1 [Example 404, (5S)-2-{[3-Chloro-5-(trifluoromethyl)pyridin-2-yl]methyl}-5-[(3,3-difluoropyrrolidin-1-yl)carbonyl]-5,6,7,8-tetrahydro[1,2,4]triazolo[4,3-a]pyridin-3(2H)-one]
0.225 nM | O=C([C@@H]1CCCc2nn(Cc3ncc(C(F)(F)F)cc3Cl)c(=O)n21)N1CC[C@H](F)C1 [Example 405, (5S)-2-{[3-Chloro-5-(trifluoromethyl)pyridin-2-yl]methyl}-5-{[(3S)-3-fluoropyrrolidin-1-yl]carbonyl}-5,6,7,8-tetrahydro[1,2,4]triazolo[4,3-a]pyridin-3(2H)-one]
3.6 nM | O=C([C@@H]1CCCc2nn(Cc3ncc(Cl)cc3F)c(=O)n21)N1CCC(F)(F)C1 [Example 406, (5S)-2-[(5-Chloro-3-fluoropyridin-2-yl)methyl]-5-[(3,3-difluoropyrrolidin-1-yl)carbonyl]-5,6,7,8-tetrahydro[1,2,4]triazolo[4,3-a]pyridin-3(2H)-one]
1.35 nM | O=C([C@@H]1CCCc2nn(Cc3ncc(Cl)cc3F)c(=O)n21)N1CC(F)C1 [Example 407, (5S)-2-[(5-Chloro-3-fluoropyridin-2-yl)methyl]-5-[(3-fluoroazetidin-1-yl)carbonyl]-5,6,7,8-tetrahydro[1,2,4]triazolo[4,3-a]pyridin-3(2H)-one]
0.46 nM | O=C([C@@H]1CCCc2nn(Cc3ncc(Cl)cc3F)c(=O)n21)N1C[C@@H](F)[C@@H](F)C1 [Example 408, (5S)-2-[(5-Chloro-3-fluoropyridin-2-yl)methyl]-5-{[(3R,4S)-3,4-difluoropyrrolidin-1-yl]carbonyl}-5,6,7,8-tetrahydro[1,2,4]triazolo[4,3-a]pyridin-3(2H)-one]
14 nM | O=C([C@@H]1CCCc2nn(Cc3ncc(Cl)cc3F)c(=O)n21)N1CC(F)(F)C1 [Example 409, (5S)-2-[(5-Chloro-3-fluoropyridin-2-yl)methyl]-5-[(3,3-difluoroazetidin-1-yl)carbonyl]-5,6,7,8-tetrahydro[1,2,4]triazolo[4,3-a]pyridin-3(2H)-one]
7.7 nM | O=C([C@@H]1CCCc2nn(Cc3ncc(F)cc3F)c(=O)n21)N1CC(F)C1 [Example 410, (5S)-2-[(3,5-Difluoropyridin-2-yl)methyl]-5-[(3-fluoroazetidin-1-yl)carbonyl]-5,6,7,8-tetrahydro[1,2,4]triazolo[4,3-a]pyridin-3(2H)-one]
